# Earlier results, collected in patent US20240299410A1 (Woolsey Pharmaceuticals, Inc., priority 2022, published 2024).
# Structures can show the parent of a compound that is named as a salt. Where two headings read alike, the source gives them in different places.
# Key:
# SOD mice = conditions: cited from earlier work; for motor function: presymptomatic SOD mice, 30 mg/kg in drinking water (Günther et al. 2014)
# [1] = humans, intravenous administration, after an hour; cited from earlier work
# human ALS patients = conditions: three ALS patients, 30 mg intravenously twice daily over 20 consecutive working days; cited from earlier work
# [2] = oral fasudil in drinking water; cited from earlier work
# [3] = male SOD mice, both 30 mg/kg and 100 mg/kg (Takata 2013)
smiles,measurement,setting,value
C[C@@H](N)[C@H]1CC[C@H](C(=O)Nc2ccncc2)CC1 [Y-27632],motor function,SOD mice; female,did not significantly improve motor function
same,motor function,SOD mice; male,improved motor function
"O=S(=O)(c1cccc2cnccc12)N1CCCNCC1 [fasudil, Hexahydro-1-(5-isoquinolinesulfonyl)-1H-1,4-diazepine monohydrochloride hemihydrate]",motor behavior,"SOD mice; male SOD mice, 30 mg/kg and 100 mg/kg beginning at disease onset (Günther 2017)",significantly improved motor behavior
same,survival time,SOD mice; [3],prolonged survival time
same,"symptom onset (motor performance, motor neuron loss)",SOD mice; [3],delayed symptom onset
same,"prolonging disease duration, 100 mg/kg versus 30 mg/kg","SOD mice; presymptomatic female SOD mice, oral (Tönges et al. 2013)",not as effective at prolonging disease duration as the lower dose
same,mixture of fasudil and M3 in CSF,[1],50/50
same,outcome of compassionate use treatment,human ALS patients,no conclusive results beyond safety
"O=S(=O)(c1cccc2c(O)nccc12)N1CCCNCC1 [M3, hydroxyfasudil]",M3 in male rats relative to female rats,[2],~7 fold
